# Measured values: paper PMC2279149, “Mouse N-acetyltransferase type 2, the homologue of human N-acetyltransferase type 1” (Biochemical Pharmacology, 2008)
# Where two headings read alike, the source gives them in different places.
# Assays:
# mouse Nat2 [1] = molecular target: T1, mouse Nat2 (Mus musculus, UniProt P50295); assay: Substrate specific activity of mouse Nat2 (rate of CoA production, DTNB); format: biochemical; conditions: substrate 500 μM, AcCoA 400 μM, 25 °C, pH 8.0
# T1 construct: The mouse Nat2 open-reading frame [22] was sub-cloned into pET28b(+); hexa-histidine tag (His-tag, from pET28b(+)) (N, cleaved yes); made in house; host or cells: Escherichia coli Rosetta(DE3)pLysS
# T1 sequence (P50295 1-290): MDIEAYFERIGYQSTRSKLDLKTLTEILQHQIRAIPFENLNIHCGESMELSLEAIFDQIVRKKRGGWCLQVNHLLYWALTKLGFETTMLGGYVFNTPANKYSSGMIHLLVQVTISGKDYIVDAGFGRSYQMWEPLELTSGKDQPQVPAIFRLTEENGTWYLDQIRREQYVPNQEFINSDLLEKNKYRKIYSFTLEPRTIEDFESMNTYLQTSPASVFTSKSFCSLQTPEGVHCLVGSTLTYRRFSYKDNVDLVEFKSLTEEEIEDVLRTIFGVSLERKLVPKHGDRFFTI
# Protocol: The rate of production of the free thiol Coenzyme A by NAT, in the presence of a range of known NAT acetyl-acceptor substrates, was determined by using Ellman's reagent, 5,5′-dithio-bis(2-nitrobenzoic acid) (DTNB) as previously described [[2,26]]. The substrate (500 μM) and purified recombinant NAT were pre-incubated (25 °C, 5 min) in 96-well flat-bottomed polystyrene plates (Costar®, Corning Inc.) in 20 mM Tris–HCl (pH 8.0). AcCoA (400 μM) was added to start the reaction in a final volume of 100 μL. The reaction was quenched with the addition of 25 μL of guanidine–HCl solution (6.4 M guanidine–HCl, 0.1 M Tris–HCl (pH 7.3)) containing 5 mM DTNB. The absorbance at 405 nm was measured on a plate-reader (Sunrise, Tecan). Assay buffer was used to replace substrate, AcCoA or NAT for control reactions. The amount of CoA produced in the assay was determined in comparison with a CoA standard curve.
# Substrate abbreviations used for the substrate selectivity assays are as follows: aniline (ANL), 4-aminobenzoic acid (PABA), 4-aminosalicylic acid (4AS), 5-aminosalicylic acid (5AS), 4-chloroaniline (CLA), 4-bromoaniline (BRA), 4-iodoaniline (IOA), 4-methoxyanline (ANS), 4-ethoxyaniline (EOA), 4-butoxyanline (BOA), 4-hexyloxyaniline (HOA), 4-phenoxyaniline (POA), 4-aminoveratrole (4AV), 2-aminofluorene (2AF), 4-aminobenzoyl-L-glutamate (pABGlu), sulfamethazine (SMZ), procainamide (PRO), 4-aminopyridine (APY), isoniazid (INH), hydralazine (HDZ) and phenylhydrazine (PHZ). The stock concentration of substrate was 100 mM dissolved in DMSO, such that the final concentration of DMSO was less than 5% in the assays. DMSO only controls were carried out.
# Fig. 2 Comparison of the substrate specific activity profiles of mouse Nat2, human NAT1 and human NAT2. The substrate specific activity profiles for mouse Nat2 (grey bars), human NAT1 (cross-hatched bars) and human NAT2 (black bars) are shown. The activity of mouse Nat2 was determined by measuring the rate of CoA production, as described in Section 2. Purified mouse Nat2 (0.125 μg) was incubated with arylamine substrate (each at 500 μM) and AcCoA (400 μM) in assay buffer (20 mM Tris–HCl (pH 8.0)) containing 0.5% (v/v) DMSO at 25 °C. The specific activities were determined from the linear initial rates of reaction. All measurements were performed in triplicate and are expressed as mean ± standard deviation relative to the most rapidly acetylated substrate. The human NAT1 and NAT2 data are taken from. The abbreviations are defined in Section 2.
# The rate of hydrolysis of AcCoA was measured in the presence of a wide range of acetyl-acceptors (known NAT substrates, at 500 μM) and mouse Nat2 as described in the Methods section and Supplementary Fig. 1. The assays were performed in the presence of 5% (v/v) DMSO.
# mouse Nat2 [2] = molecular target: T1, mouse Nat2; assay: Inhibition of mouse Nat2 acetylation of PABA (colorimetric DMAB assay); format: biochemical
# Protocol: The rates of arylamine acetylation by NATs were determined colorimetrically as previously described, but with minor modifications. Each assay contained the enzyme, arylamine substrate (see each figure legends for concentrations) and AcCoA (400 μM) in a total volume of 100 μL in assay buffer (20 mM Tris–HCl (pH 8.0), 1 mM DTT). Initially, the enzyme and substrate mixtures were pre-incubated at 25 °C for 5 min and AcCoA was added to start the reaction. The reaction was quenched using 20% (w/v) trichloroacetic acid (TCA) at different time intervals. The stopped reaction was centrifuged (16,000 × […], 10 min) to pellet the precipitated proteins. The stopped reaction mixture (200 μL) was added to 800 μL of 5% (w/v) 4-(N,N-dimethylamino)benzaldehyde (DMAB) in 9:1 acetonitrile:water to develop the colour. The absorption at 450 nm was measured with a Hitachi U-2001 UV–vis spectrophotometer, with the amount of residual substrate in the reaction was determined by comparison with a standard curve.
# The inhibitory effect of steroids on the rate of acetylation of arylamines by mouse Nat2 was measured by using the colorimetric DMAB assay as described in Section 2. Test compounds (50 μM, 2% DMSO unless specified) were pre-incubated with recombinant mouse Nat2 (3 ng) and PABA (75 μM) for 10 min at room temperature. AcCoA (400 μM) was added to start the reaction and the reaction mixture was incubated at 37 °C. The total reaction volume was 100 μL. Reactions were stopped at various time intervals by the addition of 100 μL of 20% (w/v) TCA. The colour was developed and measured as described in Section 2. The linear initial rate of reaction was determined and the percentage inhibition was calculated relative to the control activity measured without the inhibitor. All measurements were performed in triplicate and are expressed as mean ± standard deviation. *2% (v/v) ethanol **5% (v/v) DMSO used to dissolve the compounds in the assay.
# mouse Nat2 [3] = molecular target: T1, mouse Nat2; assay: 1D 1H NMR titration of mouse Nat2 with ligand; format: binding; conditions: 8 equivalents of bisphenol A; 20 °C, pH 7.0
# Protocol: 1D ^1H NMR spectra for hamster and mouse Nat2 were collected at 20 °C using a jump-return sequence. This sequence enabled the observation of H^N peaks which exchange to a significant extent with H2O. Spectra were collected using a 600 MHz spectrometer using a sweep width of 12,500 Hz. Unlabelled hamster and mouse Nat2 were used at a concentration of 10 mg/mL in the buffer described above. The titration of mouse Nat2 with bisphenol A was carried out by stepwise addition of small volumes (5–20 μL) of a concentrated solution of bisphenol A (100 mM in deuterated DMSO) to the mouse Nat2 solution in the NMR tube. The highest concentration of DMSO in the sample used was 2.8%. DMSO alone had no effect on the NMR spectrum of mouse Nat2 using concentrations up to 5%.
# [4] = design: method as in PMID 11502892; conditions: after a soy-based meal; cited from earlier work
# [5] = cited from earlier work
# [6] = steroidogenic compounds, inhibitor 1–500 μM, recombinant mouse Nat2 3 ng, PABA 75 μM, AcCoA 400 μM, 37 °C, read-out: IC50
# [7] = xenobiotic oestrogens, recombinant mouse Nat2 3 ng, PABA 75 μM, AcCoA 400 μM, 37 °C, read-out: IC50 mNAT2
smiles,measurement,setting,value
"Nc1ccc2c(c1)Cc1ccccc1-2 [2AF, 2-aminofluorene]",Specific activity of mouse Nat2 with substrate,mouse Nat2 [1],high specific activities
same,Specific activity of mouse Nat2 with substrate,mouse Nat2 [1]; listed as 2-aminofluorene,readily acetylates
"Nc1ccc(C(=O)O)c(O)c1 [4AS, 4-aminosalicylic acid]",Specific activity of mouse Nat2 with substrate,mouse Nat2 [1],high specific activities
"Nc1ccc(O)c(C(=O)O)c1 [5AS, 5-aminosalicylic acid]",Specific activity of mouse Nat2 with substrate,mouse Nat2 [1],high specific activities
CC(=O)[C@@]1(O)CC[C@H]2[C@@H]3CCC4=CC(=O)CC[C@]4(C)[C@H]3CC[C@@]21C [17-Hydroxy-progesterone],IC50,mouse Nat2 [2]; [6],> 500 µM
C[C@]12CC[C@@H]3c4ccc(O)cc4CC[C@H]3[C@@H]1CC[C@@H]2O [17-Hydroxy-β-estradiol],IC50,mouse Nat2 [2]; [6],55 ± 5 µM
C[C@H]1CCC[C@H](O)CCC/C=C/c2cc(O)cc(O)c2C(=O)O1 [Alpha-Zearalenol],IC50,mouse Nat2 [2]; [7],70 ± 10 µM
C[C@]12CCC(=O)C=C1CC[C@@H]1[C@@H]2CC[C@]2(C)C(=O)CC[C@@H]12 [Androsteinedione],IC50,mouse Nat2 [2]; [6],> 500 µM
C[C@H]1CCC[C@@H](O)CCC/C=C/c2cc(O)cc(O)c2C(=O)O1 [Beta-Zearalenol],IC50,mouse Nat2 [2]; [7],450 ± 10 µM
CC(C)(c1ccc(O)cc1)c1ccc(O)cc1 [Bisphenol A],IC50,mouse Nat2 [2]; [7],290 ± 10 µM
same,Change in chemical shift of histidine peak 1 (downfield),mouse Nat2 [3],~0.12 ppm
same,Change in chemical shift of histidine peak 4 (upfield),mouse Nat2 [3],~0.08 ppm
C[C@]12CC[C@@H]3c4ccc(O)cc4CC[C@H]3[C@@H]1CCC2=O [Estrone],IC50,mouse Nat2 [2]; [6],370 ± 10 µM
"O=c1c(-c2ccc(O)cc2)coc2cc(O)cc(O)c12 [Geni stein, genistein]",Circulating plasma concentration,[4],≤ 18 µM
same,IC50,mouse Nat2 [2],45 ± 5 µM
"NNc1nncc2ccccc12 [HDZ, hydralazine]",Specific activity of mouse Nat2 with substrate,mouse Nat2 [1],low specific activities
"NNC(=O)c1ccncc1 [INH, isoniazid]",Specific activity of mouse Nat2 with substrate,mouse Nat2 [1],low specific activities
"Nc1ccc(C(=O)O)cc1 [PABA, 4-aminobenzoic acid]",Specific activity of mouse Nat2 with substrate,mouse Nat2 [1],high specific activities
"NNc1ccccc1 [PHZ, phenylhydrazine]",Specific activity of mouse Nat2 with substrate,mouse Nat2 [1],low specific activities
CC(=O)[C@H]1CC[C@H]2[C@@H]3CC=C4C[C@@H](O)CC[C@]4(C)[C@H]3CC[C@]12C [Pregnelone],IC50,mouse Nat2 [2]; [6],> 100 µM
CC/C(=C(\c1ccccc1)c1ccc(OCCN(C)C)cc1)c1ccccc1 [Tamoxifen],Intratumoral level,[5],micromolar concentrations
C[C@]12CC[C@H]3[C@@H](CCC4=CC(=O)CC[C@@]43C)[C@@H]1CC[C@@H]2O [Testosterone],IC50,mouse Nat2 [2]; [6],> 500 µM
C[C@H]1CCCC(=O)CCC/C=C/c2cc(O)cc(O)c2C(=O)O1 [Zearalenone],IC50,mouse Nat2 [2],220 ± 10 µM
CCN(CC)CCNC(=O)c1ccc(N)cc1 [procainamide],Specific activity of mouse Nat2 with substrate,mouse Nat2 [1],low specific activities
Cc1cc(C)nc(NS(=O)(=O)c2ccc(N)cc2)n1 [sulfamethazine],Specific activity of mouse Nat2 with substrate,mouse Nat2 [1],low specific activities
